Assay results published in patent US12582146B2, “Angiotensin-converting enzyme inhibitor, blood pressure-lowering agent, and beverages and food products” (priority 2019, dated 2026).

Molecular target: angiotensin-converting enzyme (ACE) (UniProt P12822)
Experiment: Test of effect of inhibiting angiotensin-converting enzyme (Hippuryl-His-Leu substrate, hippuric acid measured by HPLC)
Type: biochemical
Description: [Test Example 1] Test of Effect of Inhibiting Angiotensin-Converting Enzyme Conducted on Compound (I)
The effect of inhibiting an angiotensin-converting enzyme was tested on the compound (I) (sample 1) as explained below.
A sample solution (sample 1), obtained by suitably dissolving in and diluting with distilled water, and distilled water respectively in an amount of 50 μL were dispensed into test tubes (10 mL). A substrate solution was dispensed respectively in an amount of 250 μL and mixed. The test tubes were preheated in a thermostatic water-tank at 37° C. for 5 minutes. The preheated test tubes were added with an ACE solution in an amount of 100 μL, agitated immediately and brought to react in the thermostatic water-tank at 37° C. for 45 minutes. After the reaction finished, 3% metaphosphate solution in an amount of 3.6 mL was added and agitated to end reaction. The inactivated solution was subjected to HPLC analysis and isolated hippuric acid was measured. Based on a hippuric acid peak area and solid amount (concentration and weighed amount) from the HPLC, an ACE inhibition rate (%) was obtained.
A substrate solution was prepared to obtain a boric acid buffering solution (pH 8.3) with 8 mM substrate (Hippuryl-His-Leu produced by PEPTIDE INSTITUTE, INC.) and 640 mM sodium chloride. An ACE solution was prepared to obtain a boric acid buffering solution with 30 mU/mL ACE (produced by Sigma-Aldrich Co. LLC).
<Liquid Chromatography Condition >
Column: Wakosil-II 5C18 HG (4.5mm I.D.×150mm produced by Wako Pure Chemical Industries, Ltd.)
• Column Temperature: 40° C. • Mobile Phase: 20 mM KH2PO4·H3PO4 (pH 3.0): Methanol (57:43, v/v) • Flow Rate: 1.0 mL/min. • Detection Wavelength: 228 nm • Feed Amount: 20 μL

Sequence of angiotensin-converting enzyme (ACE) (P12822 whole entry): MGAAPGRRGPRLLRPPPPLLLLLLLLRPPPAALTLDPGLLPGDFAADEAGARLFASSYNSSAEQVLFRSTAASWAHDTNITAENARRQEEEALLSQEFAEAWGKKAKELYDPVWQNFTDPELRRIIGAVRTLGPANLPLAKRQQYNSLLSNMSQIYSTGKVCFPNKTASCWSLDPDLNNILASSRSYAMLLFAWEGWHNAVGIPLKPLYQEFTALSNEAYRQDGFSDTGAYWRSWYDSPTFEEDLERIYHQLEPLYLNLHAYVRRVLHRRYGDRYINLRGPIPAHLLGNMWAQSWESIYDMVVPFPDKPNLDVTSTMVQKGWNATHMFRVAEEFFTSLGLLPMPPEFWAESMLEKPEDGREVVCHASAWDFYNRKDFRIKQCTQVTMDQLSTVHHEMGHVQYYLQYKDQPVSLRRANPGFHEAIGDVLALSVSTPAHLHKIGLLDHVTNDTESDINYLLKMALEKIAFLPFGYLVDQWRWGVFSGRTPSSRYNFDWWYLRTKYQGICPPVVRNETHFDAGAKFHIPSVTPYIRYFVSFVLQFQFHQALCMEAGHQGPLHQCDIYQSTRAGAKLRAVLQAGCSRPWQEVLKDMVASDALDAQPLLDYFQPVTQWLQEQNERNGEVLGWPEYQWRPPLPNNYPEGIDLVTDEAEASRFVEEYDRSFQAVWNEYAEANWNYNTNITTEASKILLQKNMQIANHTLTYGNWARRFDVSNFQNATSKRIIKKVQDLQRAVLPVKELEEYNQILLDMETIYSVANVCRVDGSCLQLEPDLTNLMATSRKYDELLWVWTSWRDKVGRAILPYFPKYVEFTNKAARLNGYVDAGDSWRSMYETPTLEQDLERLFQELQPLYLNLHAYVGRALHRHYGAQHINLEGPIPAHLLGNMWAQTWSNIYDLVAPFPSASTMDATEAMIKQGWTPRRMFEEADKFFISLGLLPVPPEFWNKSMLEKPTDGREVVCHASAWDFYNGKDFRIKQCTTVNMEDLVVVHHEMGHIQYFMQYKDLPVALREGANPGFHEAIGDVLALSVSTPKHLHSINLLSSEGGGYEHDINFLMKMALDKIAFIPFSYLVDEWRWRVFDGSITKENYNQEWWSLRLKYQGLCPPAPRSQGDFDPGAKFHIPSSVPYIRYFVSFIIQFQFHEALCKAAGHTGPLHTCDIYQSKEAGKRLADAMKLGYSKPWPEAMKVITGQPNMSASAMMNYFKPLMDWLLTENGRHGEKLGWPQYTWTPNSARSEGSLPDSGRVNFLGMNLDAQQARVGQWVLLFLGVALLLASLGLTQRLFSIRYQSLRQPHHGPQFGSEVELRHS

## COc1cc(CCC(=O)O)ccc1O [compound (I), 3-(4-hydroxy-3-methoxyphenyl)propionic acid]
37° C., 45 minutes reaction, read-out: IC50 (concentration of the sample in the reaction solution exhibiting an ACE inhibition rate of 50%) (converted)
  IC50: 10.9 mM
Sample concentration 943.25 μg/mL
  ACE Inhibition Rate: 21.6%
Sample concentration 1886.50 μg/mL
  ACE Inhibition Rate: 41.1%
Sample concentration 3773.00 μg/mL
  ACE Inhibition Rate: 73.2%
